Experimental data taken from ChEMBL document CHEMBL1154486, “Synthesis and evaluation of in vitro anti-tuberculosis activity of N-substituted glycolamides” (2009).
≈ marks a conversion by molar mass, not a printed value.

System: Mycobacterium tuberculosis
Experiment: Antimycobacterial activity against Mycobacterium tuberculosis H37Rv ATCC 27294 by microplate alamar blue assay
Type: functional

Row | SMILES | MIC
1 | O=C(CO)N1CCOCC1 | 13.8 µg/mL (≈ 94.7 µM)
2 | O=C(CO)N1CCCC(O)C1 (centres undefined) | 60 µg/mL (≈ 377 µM)
3 | O=C(CO)N1CCCCC1 | 38.8 µg/mL (≈ 271 µM)
4 | O=C(CO)N1CCN(CCO)CC1 | 14.2 µg/mL (≈ 75.7 µM)
5 | CC(CO)(CO)NC(=O)CO | 67.5 µg/mL (≈ 414 µM)
6 | CC[C@@H](CO)NCCN[C@@H](CC)CO [ETHAMBUTOL] | 5 µg/mL (≈ 24.5 µM)
7 | O=C(CO)NCCc1ccccc1 | 74 µg/mL (≈ 413 µM)
8 | CCC(CO)NC(=O)CO (centres undefined) | 29.5 µg/mL (≈ 200 µM)
9 | O=C(CO)N1CCCC1 | 25.5 µg/mL (≈ 197 µM)
10 | O=C(CO)NCCO | 87.5 µg/mL (≈ 735 µM)
11 | O=C(CO)N1CCC(O)CC1 | 33.2 µg/mL (≈ 209 µM)
12 | O=C(CO)N(CCO)CCO | 12.5 µg/mL (≈ 76.6 µM)
13 | O=C(CO)NN1CCOCC1 | 57 µg/mL (≈ 356 µM)
14 | O=C(CO)N1CCN(C(=O)CO)CC1 | 15.8 µg/mL (≈ 77.9 µM)
